Source: patent US20250012803A1, “METHODS FOR ASSESSING AN IMMUNE RESPONSE AND PREDICTING CANCER RECURRENCE AND ASSESSMENT OF CURRENT AND PRIOR CANCER STATUS” (priority 2021, published 2025)
Values joined by “and” are separate entries in the source; they are usually repeats but may differ in a detail not shown here. Equal values may be shown once.

Legend:
Type in all cases: in vivo, human
[1] = system: breast cancer patients (DTH immune response to GP2); assay: Delayed type hypersensitivity (DTH) skin test to GP2
Procedure: (§1) Methods: Consented patients were randomized and scheduled to receive GLSI-100 (500 microgram (mcg) GP2: 125 mcg GM-CSF) or control (GM-CSF only) via 6 intradermal injections every 3-4 weeks as part of the Primary Immunization Series (PIS) for the first 6 months and 4 booster intradermal injections every 6 months thereafter. […] DTH skin tests were assessed at baseline and after the 6th dose with the orthogonal mean of each skin reaction measured 48-72 hours after injection using the sensitive ballpoint-pen method.
(§2) A DTH reaction was used to assess in vivo immune responses in patients (n=150) prior to exposure to study medication and after 6 months of the first dose. The DTH orthogonal mean was measured 48-72 hours after injection using the sensitive ballpoint-pen method. DTH reactions after the PIS were greater compared to baseline DTH reactions.
as §2, with “method. GP2” for “method.”, “response increases in patients” for “reactions”, “treatment with GLSI-100.” for “the PIS were greater compared to baseline DTH reactions.”
Injection site reactions (ISR) were measured 48-72 hours after injection. Delayed-type hypersensitivity (DTH) to GP2 was performed at baseline and after 6 months of treatment. For the DTH test, 0.5 mL consisting of 100 mcg of GP2 reconstituted in bacteriostatic saline for injection was placed intradermally. The DTH reaction was measured 48-72 hours after injection.
The orthogonal mean of the largest diameter of the injection site was measured 48-72 hours after injection. A DTH reaction was used to assess in vivo immune responses in patients prior to exposure to study medication and after 6 months of the first dose. The DTH orthogonal mean was measured 48-72 hours after DTH placement using the sensitive ballpoint-pen method. DTH reactions increase after the PIS compared to baseline DTH reactions.
GP2 DTH skin tests were placed at baseline and after the 6th dose. After 48-72 hours, the largest perpendicular diameters of induration were measured and the orthogonal mean was calculated. Induration of over 5 mm was considered a positive response. The relationship between prognostic factors such as demographic and disease characteristics and the baseline DTH response were investigated by logistic regression.

[2] = system: node-positive and high-risk node-negative breast cancer patients with tumors expressing any degree of HER2; assay: Phase IIb trial (NCT00524277): disease-free survival / breast cancer recurrence
Procedure: Background for Examples 1-5: Delayed type hypersensitivity (DTH) skin tests in the randomized, active-controlled, single-blinded, multicenter Phase IIb trial investigating GLSI-100 (GP2+GM-CSF) administered in the adjuvant setting to node-positive and high-risk node-negative breast cancer patients with tumors expressing any degree of HER2 (immuno-histochemistry [IHC] 1-3+) (NCT00524277) were analyzed. The trial enrolled HLA-A*02 patients randomized to receive GLSI-100 versus GM-CSF alone. The trial's primary objective was to determine if treatment with GLSI-100, a HER2-derived peptide, reduces recurrence rates.
as §1
Results: The study enrolled 180 patients across 16 clinical sites with both HER2 3+ positive and low HER2 expressors (1-2+). […] Injection site reactions were common, occurring in almost 100% of patients treated with either GLSI-100 or GM-CSF alone. […]

[3] = system: breast cancer patients (injection site); assay: Injection site reaction (ISR) measurement, orthogonal mean
breast cancer patients = assay: Phase IIb trial safety / tolerability; conditions: patients treated with either GLSI-100 or GM-CSF alone
Procedure: as §1
Results: The study enrolled 180 patients across 16 clinical sites with both HER2 3+ positive and low HER2 expressors (1-2+). […] Injection site reactions were common, occurring in almost 100% of patients treated with either GLSI-100 or GM-CSF alone. Previous publications have reported the increase in DTH response reported among patients after treatment with GLSI-100.

Substance	patients reacting to GP2 at baseline (positive DTH, induration of 5 mm or greater) ([1]; baseline, prior to any GP2 treatment, all patients (33/145)) [%]	patients with positive baseline DTH response to GP2 in subgroup with later breast cancer recurrence ([1]; baseline, recurrence subgroup (8/22)) [%]	6 Month DTH (mm) ([1]; individual recurring patients, after 6 months of treatment)	Baseline DTH (mm) ([1]; individual recurring patients, prior to exposure to study medication)	Time to Recurrence ([2]; individual patients who experienced breast cancer recurrence)	median orthogonal mean induration of injection site reaction ([3]; after a single dose, p=0.0036) [mm]	average difference in injection site reaction, HER2 3+ vs HER2 1-2+ control patients ([3]; over all 10 doses, HER2 3+ smaller) [mm]	DTH reaction after the Primary Immunization Series (orthogonal mean) ([1]; after 6 months, measured 48-72 hours after injection, p=0.009) [mm]	Kaplan-Meier estimated 5-year disease-free survival (DFS) rate ([2]; HER2 3+ patients followed 6 months or more and disease-free over first 6 months, 5 years follow-up, p=0.0338) [%]	patients with injection site reactions (breast cancer patients) [%]
Ile Ile Ser Ala Val Val Gly Ile Leu (IISAVVGIL) [GP2]	22.8	36.4	24 mm and 20 mm and 16 mm and 15 mm and 3 mm and 0 mm and 25 mm	9 mm and 8 mm and 7 mm and 0 mm (8×) and 43 mm and 13 mm	28 days and 99 days and 66 days and 820 days and 265 days and 498 days and 507 days and 366 days and 590 days and 141 days and 79 days and 76 days and 1295 days	–	–	–	–	–
granulocyte-macrophage colony-stimulating factor [GM-CSF]	–	–	–	–	–	7.8	43.1	0.0	89.4	~100
